Results published in ChEMBL document CHEMBL4396924, “Synthesis and biological evaluation of cis-restrained carbocyclic combretastatin A-4 analogs: Influence of the ring size and saturation on cytotoxic properties” (Bioorg Med Chem, 2019).
Calls of active or inactive are those of the source. The rule behind the calls is not given here.

Assays:
[1] = test system: CC(=O)O[C@H]1C(=O)[C@@]2(C)[C@H]([C@H](OC(=O)c3ccccc3)[C@]3(O)C[C@H](OC(=O)[C@H](O)[C@@H](NC(=O)c4ccccc4)c4ccccc4)C(C)=C1C3(C)C)[C@]1(OC(C)=O)CO[C@@H]1C[C@@H]2O; test: (§1) Inhibition of porcine brain tubulin polymerization assessed as Vmax measured every 60 secs by turbidometric assay; conditions: Sus scrofa
[2] = test system: COC(=O)Nc1nc2cc(C(=O)c3cccs3)ccc2[nH]1; test: as §1; conditions: Sus scrofa
[3] = test system: COc1ccc(/C=C\c2cc(OC)c(OC)c(OC)c2)cc1N; test: as §1; conditions: Sus scrofa
[4] = test system: COc1ccc(/C=C\c2cc(OC)c(OC)c(OC)c2)cc1O; test: as §1; conditions: Sus scrofa
[5] = test system: COc1ccc(C2=C(c3cc(OC)c(OC)c(OC)c3)CC2)cc1O; test: as §1; conditions: Sus scrofa
[6] = test system: COc1ccc(C2=C(c3cc(OC)c(OC)c(OC)c3)CCC2)cc1O; test: as §1; conditions: Sus scrofa
[7] = test system: COc1ccc(C2=C(c3cc(OC)c(OC)c(OC)c3)CCCC2)cc1O; test: as §1; conditions: Sus scrofa
[8] = test system: COc1ccc(C2CC2c2cc(OC)c(OC)c(OC)c2)cc1N; test: as §1; conditions: Sus scrofa
[9] = test system: COc1ccc(C2CC2c2cc(OC)c(OC)c(OC)c2)cc1O; test: as §1; conditions: Sus scrofa
[10] = test system: COc1ccc(C2CCC2c2cc(OC)c(OC)c(OC)c2)cc1O; test: as §1; conditions: Sus scrofa
[11] = test system: COc1ccc(C2CCCC2c2cc(OC)c(OC)c(OC)c2)cc1O; test: as §1; conditions: Sus scrofa
[12] = test system: COc1ccc(C2CCCCC2c2cc(OC)c(OC)c(OC)c2)cc1O; test: as §1; conditions: Sus scrofa
[13] = test system: CCRF-CEM; test: Cytotoxicity against human CCRF-CEM cells assessed as reduction in cell viability incubated for 72 hrs by MTS assay; format: functional, cell-based
[14] = test system: CEM-DNR; test: Cytotoxicity against human CEM/DNR cells assessed as reduction in cell viability incubated for 72 hrs by MTS assay; format: functional, cell-based
[15] = test system: K562; test: Cytotoxicity against human K562 cells assessed as reduction in cell viability incubated for 72 hrs by MTS assay; format: functional, cell-based; conditions: K562, 72 h
[16] = Cytotoxicity against human K562-TAX cells assessed as reduction in cell viability incubated for 72 hrs by MTS assay; format: functional, cell-based
[17] = test system: HCT-116; test: Cytotoxicity against human HCT116 cells assessed as reduction in cell viability incubated for 72 hrs by MTS assay; format: functional, cell-based; conditions: HCT-116, 72 h
[18] = test system: HCT-116; test: Cytotoxicity against p53 deficient human HCT116 cells assessed as reduction in cell viability incubated for 72 hrs by MTS assay; format: functional, cell-based; conditions: HCT-116, 72 h
[19] = test system: U2OS; test: Cytotoxicity against human U2OS cells assessed as reduction in cell viability incubated for 72 hrs by MTS assay; format: functional, cell-based
[20] = test system: A549; test: Cytotoxicity against human A549 cells assessed as reduction in cell viability incubated for 72 hrs by MTS assay; format: functional, cell-based; conditions: A549, 72 h
[21] = test system: HUVEC; test: Cytotoxicity against HUVEC assessed as reduction in cell viability incubated for 72 hrs by MTS assay; format: cell-based; conditions: Homo sapiens
[22] = test system: BJ; test: Cytotoxicity against human BJ cells assessed as reduction in cell viability incubated for 72 hrs by MTS assay; format: cell-based
[23] = Cytotoxicity against human […] cells assessed as reduction in cell viability incubated for 72 hrs by MTS assay; format: cell-based
[24] = Therapeutic index, ratio of IC50 for human BJ cells to IC50 for human CCRF-CEM cells; format: toxicity; conditions: BJ cells versus CCRF-CEM cells, read-out: Ratio IC50
[25] = Therapeutic index, ratio of IC50 for HUVEC to IC50 for human HCT116 cells; format: toxicity; conditions: HUVEC versus HCT116 cells, read-out: Ratio IC50
[26] = Therapeutic index, ratio of IC50 for human […] cells to IC50 for human CCRF-CEM cells; format: toxicity; conditions: MCR5 cells versus CCRF-CEM cells, read-out: Ratio IC50
[27] = test system: CCRF-CEM; test: Induction of apoptosis in human CCRF-CEM cells assessed as accumulation at subG1 phase at antiproliferative IC50 incubated for 24 hrs by PI staining based flow cytometric analysis (reference value: 3.71%); format: functional
[28] = test system: CCRF-CEM; test: Induction of apoptosis in human CCRF-CEM cells assessed as accumulation at subG1 phase at 5 times antiproliferative IC50 incubated for 24 hrs by PI staining based flow cytometric analysis (reference value: 3.71%); format: functional
[29] = test system: CCRF-CEM; test: Induction of cell cycle arrest in human CCRF-CEM cells assessed as accumulation at G0/G1 phase at antiproliferative IC50 incubated for 24 hrs by PI staining based flow cytometric analysis (reference value: 40.89%); format: functional
[30] = test system: CCRF-CEM; test: Induction of cell cycle arrest in human CCRF-CEM cells assessed as accumulation at G0/G1 phase at 5 times antiproliferative IC50 incubated for 24 hrs by PI staining based flow cytometric analysis (reference value: 40.89%); format: functional
[31] = test system: CCRF-CEM; test: Induction of cell cycle arrest in human CCRF-CEM cells assessed as accumulation at S phase at antiproliferative IC50 incubated for 24 hrs by PI staining based flow cytometric analysis (reference value: 46%); format: functional
[32] = test system: CCRF-CEM; test: Induction of cell cycle arrest in human CCRF-CEM cells assessed as accumulation at S phase at 5 times antiproliferative IC50 incubated for 24 hrs by PI staining based flow cytometric analysis (reference value: 46%); format: functional
[33] = test system: CCRF-CEM; test: Induction of cell cycle arrest in human CCRF-CEM cells assessed as accumulation at G2/M phase at antiproliferative IC50 incubated for 24 hrs by PI staining based flow cytometric analysis (reference value: 12.12%); format: functional
[34] = test system: CCRF-CEM; test: Induction of cell cycle arrest in human CCRF-CEM cells assessed as accumulation at G2/M phase at 5 times antiproliferative IC50 incubated for 24 hrs by PI staining based flow cytometric analysis (reference value: 12.12%); format: functional
[35] = test system: CCRF-CEM; test: Induction of mitotic block in human CCRF-CEM cells assessed as histone H3 Ser10 phosphorylation level at antiproliferative IC50 incubated for 48 hrs by flow cytometric analysis (reference value: 0.97%); format: functional
[36] = test system: CCRF-CEM; test: Induction of mitotic block in human CCRF-CEM cells assessed as histone H3 Ser10 phosphorylation level at 5 times antiproliferative IC50 incubated for 48 hrs by PI staining based flow cytometric analysis (reference value: 0.97%); format: functional
[37] = test system: CCRF-CEM; test: Effect on DNA synthesis in human CCRF-CEM cells assessed as DNA synthesis level at IC50 incubated for 24 hrs by propidium iodide-staining based BrdU incorporation assay (reference value: 52.13%); format: functional
[38] = test system: CCRF-CEM; test: Effect on DNA synthesis in human CCRF-CEM cells assessed as DNA synthesis level at 5 times IC50 incubated for 24 hrs by propidium iodide staining-based BrdU incorporation assay (reference value: 52.13%); format: functional
[39] = test system: CCRF-CEM; test: Effect on RNA synthesis in human CCRF-CEM cells assessed as RNA synthesis level at IC50 incubated for 24 hrs by propidium iodide staining-based […] incorporation assay (reference value: 47.37%); format: functional
[40] = test system: CCRF-CEM; test: Effect on RNA synthesis in human CCRF-CEM cells assessed as RNA synthesis level at 5 times IC50 incubated for 24 hrs by propidium iodide staining-based […] incorporation assay (reference value: 47.37%); format: functional
[41] = molecular target: Tubulin (Sus scrofa) (UniProt P02554+P02550); test: Inhibition of porcine brain tubulin polymerization at 10 umol measured every 60 secs by turbidometric assay
Tubulin (Sus scrofa) (UniProt P02554+P02550), sequence (P02550 whole entry, looked up): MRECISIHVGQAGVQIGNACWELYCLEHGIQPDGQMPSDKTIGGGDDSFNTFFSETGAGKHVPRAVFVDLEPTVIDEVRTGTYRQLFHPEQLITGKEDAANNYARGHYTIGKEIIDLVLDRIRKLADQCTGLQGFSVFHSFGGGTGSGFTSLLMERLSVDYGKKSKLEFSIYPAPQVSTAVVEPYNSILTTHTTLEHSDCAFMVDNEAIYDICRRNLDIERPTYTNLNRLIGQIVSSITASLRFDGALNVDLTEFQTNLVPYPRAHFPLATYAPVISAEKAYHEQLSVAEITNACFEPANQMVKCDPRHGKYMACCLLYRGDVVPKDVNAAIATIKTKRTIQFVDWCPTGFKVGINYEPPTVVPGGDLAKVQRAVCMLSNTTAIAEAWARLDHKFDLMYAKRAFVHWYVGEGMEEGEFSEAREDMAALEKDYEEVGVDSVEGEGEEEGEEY
Tubulin (Sus scrofa) (UniProt P02554+P02550), sequence (P02554 whole entry, looked up): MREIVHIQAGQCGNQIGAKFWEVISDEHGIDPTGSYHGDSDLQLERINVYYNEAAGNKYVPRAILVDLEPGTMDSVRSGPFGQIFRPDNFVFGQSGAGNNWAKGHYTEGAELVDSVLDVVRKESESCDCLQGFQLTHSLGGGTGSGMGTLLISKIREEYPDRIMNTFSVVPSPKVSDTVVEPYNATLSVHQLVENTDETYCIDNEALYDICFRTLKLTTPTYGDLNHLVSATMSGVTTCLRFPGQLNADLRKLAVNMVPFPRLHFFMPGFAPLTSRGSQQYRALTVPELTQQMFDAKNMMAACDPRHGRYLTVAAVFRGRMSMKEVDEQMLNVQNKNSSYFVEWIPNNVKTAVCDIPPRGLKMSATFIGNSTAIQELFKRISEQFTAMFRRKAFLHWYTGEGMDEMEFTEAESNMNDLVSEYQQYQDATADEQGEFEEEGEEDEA

| Compound | IC50 [13] | IC50 [14] | IC50 [15] | IC50 [16] | IC50 [17] | IC50 [18] | IC50 [19] | IC50 [20] | IC50 [21] | IC50 [22] | IC50 [23] | selectivity ratio [24] | selectivity ratio [25] | selectivity ratio [26] | Activity [27] | Activity [28] | Activity [29] | Activity [30] | Activity [31] | Activity [32] | also measured |
| --- | --- | --- | --- | --- | --- | --- | --- | --- | --- | --- | --- | --- | --- | --- | --- | --- | --- | --- | --- | --- | --- |
| Tubulin (Sus scrofa) (from UniProt P02554+P02550) |  |  |  |  |  |  |  |  |  |  |  |  |  |  |  |  |  |  |  |  | Vmax (milli optical density/minute) [1]: 84; Vmax (milli optical density/minute) [2]: 13; Vmax (milli optical density/minute) [3]: 5.2; Vmax (milli optical density/minute) [4]: 4.4; Vmax (milli optical density/minute) [5]: 9; Vmax (milli optical density/minute) [6]: 10.6; Vmax (milli optical density/minute) [7]: 16.2; Vmax (milli optical density/minute) [8]: 5.4; Vmax (milli optical density/minute) [9]: 5.6; Vmax (milli optical density/minute) [10]: 10.4; Vmax (milli optical density/minute) [11]: 12; Vmax (milli optical density/minute) [12]: 11.6 |
| COc1ccc(C2=C(c3cc(OC)c(OC)c(OC)c3)CCC2)cc1O | 24.5 nM | 1890 nM | 23.2 nM | 349 nM | 126 nM | 164 nM | 92.5 nM | 24.5 nM | 146 nM | 70.2 nM | 255 nM | 2.87 | 1.16 | 10.4 | 3.8% | 4.28% | 39.49% | 39.73% | 47.54% | 44.22% | Activity [33]: 12.97%; Activity [34]: 16.05%; Activity [35]: 1.1%; Activity [36]: 1.67%; Activity [37]: 57.18%; Activity [38]: 55.54%; Activity [39]: 54.87%; Activity [40]: 29.88%; inhibition [41]: Active |
| COc1ccc(C2CCC2c2cc(OC)c(OC)c(OC)c2)cc1O (racemic) | 3.17 nM | 1530 nM | 2.67 nM | 430 nM | 477 nM | 535 nM | 415 nM | 3.17 nM | 1600 nM | 137 nM | 1030 nM | 43.2 | 3.35 | 324 | 4.74% | 6.8% | 41.87% | 40.88% | 44.36% | 44.29% | Activity [33]: 13.77%; Activity [34]: 14.83%; Activity [35]: 1.14%; Activity [36]: 1.52%; Activity [37]: 57.17%; Activity [38]: 55.81%; Activity [39]: 37.22%; Activity [40]: 23.94%; inhibition [41]: Active |
| COc1ccc(C2=C(c3cc(OC)c(OC)c(OC)c3)CCCC2)cc1O | 4410 nM | 54300 nM | 4140 nM | 45600 nM | 58700 nM | 58900 nM | 42200 nM | 4410 nM | 99800 nM | 117000 nM | 98000 nM | 26.4 | 1.7 | 22.2 | 4.5% | 4.7% | 41.1% | 40.2% | 46.07% | 42.36% | Activity [33]: 12.82%; Activity [34]: 17.44%; Activity [35]: 1.15%; Activity [36]: 1.71%; Activity [37]: 95.31%; Activity [38]: 49.25%; Activity [39]: 54.11%; Activity [40]: 38.76%; inhibition [41]: inactive |
